One experiment has as its system HCC827 cells (EGFR Exon19 del, non-small cell lung cancer cells). Briefly: Cell viability assay (WST/CCK8), HCC827 cells. To be noted: Homo sapiens, HCC827, 72 h, Table 3, poziotinib-based compounds; HCC827 (Exon19 Del); 72 hours; WST (CCK8); read-out: IC50 (half inhibitory concentration). Type of experiment: cell-based. The source says: The cell lines with abnormal EGFR expression used are as follows: • HCC827 cells (EGFR Exon19 del, non-small cell lung cancer cells); • PC9 cells (EGFR Exon 19 del, non-small cell lung cancer cells); • PC9BracA1 (EGFR Exon 19 del+T790M, non-small cell lung cancer cells) • H1975 (EGFR Exon T790M+L858R mutation, non-small cell lung cancer cell line) • BT474 cells (HER2 positive breast cancer cells)
All of the half inhibitory concentrations (IC50) of these compounds of the present invention were determined with WST reagent from Fuyuan Biotec Company. The specific experiment procedures are as follows: Cancer cells were planted in 96-well-plate at the density of 3 000 cells per well with 100 μL RPMI1640 completed culture medium. In the next day, compounds with indicated concentrations were added to the cells, DMSO was used as the negative control and the EGFR TKIs were used to treat cells as the positive groups. After 72 hours drug treatment, cell viability was measured by using the WST reagent following the instructions.
The cells were treated with the gradient concentration of these compounds (the maximum concentration: 10 μM; 3-fold dilution ratio, 10 concentration gradients) for 72 hours and then incubated with the WST (CCK8) reagent to determine the cell viability.
With `COc1cc2ncnc(Nc3ccc(Cl)c(Cl)c3F)c2cc1OC1CCN(C(=O)CCCCCSc2cccc3c2C(=O)N(C2CCC(=O)NC2=O)C3=O)CC1` (stereo not shown) [SIAIS249018, 4-((6-(4-((4-((3,4-dichloro-2-fluorophenyl)amino)-7-methoxyquinazolin-6-yl)oxy)piperidin-1-yl)-6-oxohexyl)thio)-2-(2,6-dioxopiperidin-3-yl)isoindoline-1,3-dione], the IC50 came to 13.3 nM.
On the same count and under the same terms, with `COc1cc2ncnc(Nc3ccc(Cl)c(Cl)c3F)c2cc1OC1CCN(C(=O)CCC(=O)N[C@H](C(=O)N2C[C@H](O)C[C@H]2C(=O)NCc2ccc(-c3scnc3C)cc2)C(C)(C)C)CC1` [SIAIS249020, (2S,4R)-1-((S)-2-(4-(4-((4-((3,4-dichloro-2-fluorophenyl)amino)-7-methoxyquinazolin-6-yl)oxy)piperidin-1-yl)-4-oxobutanamido)-3,3-dimethylbutanoyl)-4-hydroxy-N-(4-(4-methylthiazol-5-yl)benzyl)pyrrolidine-2-carboxamide] the figure was 75.5 nM.
As for `COc1cc2ncnc(Nc3ccc(Cl)c(Cl)c3F)c2cc1OC1CCN(C(=O)CCCCC(=O)N[C@H](C(=O)N2C[C@H](O)C[C@H]2C(=O)NCc2ccc(-c3scnc3C)cc2)C(C)(C)C)CC1` [SIAIS249021, (2S,4R)-1-((S)-2-(6-(4-((4-((3,4-dichloro-2-fluorophenyl)amino)-7-methoxyquinazolin-6-yl)oxy)piperidin-1-yl)-6-oxohexanamido)-3,3-dimethylbutanoyl)-4-hydroxy-N-(4-(4-methylthiazol-5-yl)benzyl)pyrrolidine-2-carboxamide], the IC50 is 75.4 nM.
As for `COc1cc2ncnc(Nc3ccc(Cl)c(Cl)c3F)c2cc1OC1CCN(C(=O)CCOCCOCCOCCOCCOCCNc2cccc3c2C(=O)N(C2CCC(=O)NC2=O)C3=O)CC1` (stereo not shown) [SIAIS249033, 4-((18-(4-((4-((3,4-dichloro-2-fluorophenyl)amino)-7-methoxyquinazolin-6-yl)oxy)piperidin-1-yl)-18-oxo-3,6,9,12,15-pentaoxaoctadecyl)amino)-2-(2,6-dioxopiperidin-3-yl)isoindoline-1,3-dione], the IC50 came out at 13 nM.
Turning to `COc1cc2ncnc(Nc3ccc(Cl)c(Cl)c3F)c2cc1OC1CCN(C(=O)CCOCCOCCOCCOCCNc2cccc3c2C(=O)N(C2CCC(=O)NC2=O)C3=O)CC1` (stereo not shown) [SIAIS249032, 4-((15-(4-((4-((3,4-dichloro-2-fluorophenyl)amino)-7-methoxyquinazolin-6-yl)oxy)piperidin-1-yl)-15-oxo-3,6,9,12-tetraoxapentadecyl)amino)-2-(2,6-dioxopiperidin-3-yl)isoindoline-1,3-dione], the IC50 was 11 nM.

Still in this experiment, the particulars now being: Homo sapiens, HCC827, 72 h, Table 4, gefitinib and sapitinib-based compounds; HCC827 (Exon19 Del); 72 hours; WST; read-out: IC50 (half inhibitory concentration).
As for `COc1cc2ncnc(Nc3ccc(F)c(Cl)c3)c2cc1OCCCN1CCC(N2CCN(CCCC#Cc3cccc4c3CN(C3CCC(=O)NC3=O)C4=O)CC2)CC1` (stereo not shown) [SIAIS262089, 3-(4-(5-(4-(1-(3-((4-((3-chloro-4-fluorophenyl)amino)-7-methoxyquinazolin-6-yl)oxy)propyl)piperidin-4-yl)piperazin-1-yl)pent-1-yn-1-yl)-1-oxoisoindolin-2-yl)piperidine-2,6-dione], the IC50 came to 102 nM.
Take `COc1cc2ncnc(Nc3ccc(F)c(Cl)c3)c2cc1OCCCN1CCC(N2CCN(C(=O)CSc3cccc4c3CN(C3CCC(=O)NC3=O)C4=O)CC2)CC1` (stereo not shown) [SIAIS262085, 3-(4-((2-(4-(1-(3-((4-((3-chloro-4-fluorophenyl)amino)-7-methoxyquinazolin-6-yl)oxy)propyl)piperidin-4-yl)piperazin-1-yl)-2-oxoethyl)thio)-1-oxoisoindolin-2-yl)piperidine-2,6-dione]: the IC50 turned out to be 145 nM.
Still for that read-out and setting: the value for `COc1cc2ncnc(Nc3ccc(F)c(Cl)c3)c2cc1OCCCN1CCN(C(=O)CSc2cccc3c2C(=O)N(C2CCC(=O)NC2=O)C3=O)CC1` (stereo not shown) [SIAIS184164, 4-((2-(4-(3-((4-((3-chloro-4-fluorophenyl)amino)-7-methoxyquinazolin-6-yl)oxy)propyl)piperazin-1-yl)-2-oxoethyl)thio)-2-(2,6-dioxopiperidin-3-yl)isoindoline-1,3-dione] was 47 nM.
Still for that read-out and setting: with `COc1cc2ncnc(Nc3ccc(F)c(Cl)c3)c2cc1OCCCN1CCN(C(=O)COCCOCCOCCOCCOCCSc2cccc3c2C(=O)N(C2CCC(=O)NC2=O)C3=O)CC1` (stereo not shown) [SIAIS184170, 4-((17-(4-(3-((4-((3-chloro-4-fluorophenyl)amino)-7-methoxyquinazolin-6-yl)oxy)propyl)piperazin-1-yl)-17-oxo-3,6,9,12,15-pentaoxaheptadecyl)thio)-2-(2,6-dioxopiperidin-3-yl)isoindoline-1,3-dione] the figure was 186 nM; with `COc1cc2ncnc(Nc3ccc(F)c(Cl)c3)c2cc1OC1CCN(CC(=O)NCCCCCCSc2cccc3c2CN(C2CCC(=O)NC2=O)C3=O)CC1` (stereo not shown) [SIAIS293050, 2-(4-((4-((3-chloro-4-fluorophenyl)amino)-7-methoxyquinazolin-6-yl)oxy)piperidin-1-yl)-N-(6-((2-(2,6-dioxopiperidin-3-yl)-1-oxoisoindolin-4-yl)thio)hexyl)acetamide], 1.5 nM.
As for `COc1cc2ncnc(Nc3ccc(F)c(Cl)c3)c2cc1OC1CCN(CC(=O)NCCCCCCCSc2cccc3c2CN(C2CCC(=O)NC2=O)C3=O)CC1` (stereo not shown) [SIAIS293051, 2-(4-((4-((3-chloro-4-fluorophenyl)amino)-7-methoxyquinazolin-6-yl)oxy)piperidin-1-yl)-N-(7-((2-(2,6-dioxopiperidin-3-yl)-1-oxoisoindolin-4-yl)thio)heptyl)acetamide], the IC50 came to 6.5 nM.
The same measure, in the same setting: the value for `COc1cc2ncnc(Nc3ccc(F)c(Cl)c3)c2cc1OCCCN1CCC(N2CCNCC2)CC1` [SIAIS262080, N-(3-chloro-4-fluorophenyl)-7-methoxy-6-(3-(4-(piperazin-1-yl)piperidin-1-yl)propoxy)quinazolin-4-amine] was 41 nM.

Still in this experiment, the particulars now being: Homo sapiens, HCC827, 72 h, Table 5, afatinib-based compounds; HCC827 (Exon19 Del); 72 hours; WST; read-out: IC50 (half inhibitory concentration).
Consider `O=C1CCC(N2C(=O)c3cccc(SCCOCCOCCOCC(=O)Nc4cc5c(Nc6ccc(F)c(Cl)c6)ncnc5cc4O[C@H]4CCOC4)c3C2=O)C(=O)N1` (stereo partly drawn) [SIAIS184154, N-(4-((3-chloro-4-fluorophenyl)amino)-7-(((S)-tetrahydrofuran-3-yl)oxy)quinazolin-6-yl)-2-(2-(2-(2-((2-(2,6-dioxopiperidin-3-yl)-1,3-dioxoisoindolin-4-yl)thio)ethoxy)ethoxy)ethoxy)acetamide], for which the IC50 turned out to be 250 nM.
The same measure, in the same setting: the value for `O=C1CCC(N2Cc3c(SCCCC(=O)Nc4cc5c(Nc6ccc(F)c(Cl)c6)ncnc5cc4O[C@H]4CCOC4)cccc3C2=O)C(=O)N1` (stereo partly drawn) [SIAIS1210087, N-(4-((3-chloro-4-fluorophenyl)amino)-7-(((S)-tetrahydrofuran-3-yl)oxy)quinazolin-6-yl)-4-((2-(2,6-dioxopiperidin-3-yl)-1-oxoisoindolin-4-yl)thio)butanamide] was 238 nM; that for `O=C1CCC(N2C(=O)c3cccc(SCCCCCC(=O)Nc4cc5c(Nc6ccc(F)c(Cl)c6)ncnc5cc4O[C@H]4CCOC4)c3C2=O)C(=O)N1` (stereo partly drawn) [SIAIS184095, N-(4-((3-chloro-4-fluorophenyl)amino)-7-(((S)-tetrahydrofuran-3-yl)oxy)quinazolin-6-yl)-6-((2-(2,6-dioxopiperidin-3-yl)-1,3-dioxoisoindolin-4-yl)thio)hexanamide] was 174 nM; that for `O=C1CCC(N2C(=O)c3cccc(SCCCC(=O)Nc4cc5c(Nc6ccc(F)c(Cl)c6)ncnc5cc4O[C@H]4CCOC4)c3C2=O)C(=O)N1` (stereo partly drawn) [SIAIS184094, N-(4-((3-chloro-4-fluorophenyl)amino)-7-(((S)-tetrahydrofuran-3-yl)oxy)quinazolin-6-yl)-4-((2-(2,6-dioxopiperidin-3-yl)-1,3-dioxoisoindolin-4-yl)thio)butanamide] was 105 nM.

Still in this experiment, the particulars now being: Homo sapiens, HCC827, 72 h, Table 6, canertinib-based compounds; HCC827 (Exon19 Del); 72 hours; WST; read-out: IC50 (half inhibitory concentration).
For `C=CC(=O)Nc1cc2c(Nc3ccc(F)c(Cl)c3)ncnc2cc1OCCCN1CCNCC1` [Caneritinib derivative A (SIAIS293064), N-(4-((3-chloro-4-fluorophenyl)amino)-7-(3-(piperazin-1-yl)propoxy)quinazolin-6-yl)acrylamide], the IC50 is 4.5 nM.

The experiment is the same for the next values; noted with them: Homo sapiens, HCC827, 72 h, Table 8, osimertinib-based compounds; HCC827; 72 hours; WST; read-out: IC50 (half inhibitory concentration).
On to `C=CC(=O)Nc1cc(Nc2nccc(-c3cn(C)c4ccccc34)n2)c(OC)cc1N(C)CCN(C)C(=O)COCCOCCSc1cccc2c1CN(C1CCC(=O)NC1=O)C2=O` (stereo not shown) [SIAIS337075, N-(2-((2-(2-(2-(2-((2-(2,6-dioxopiperidin-3-yl)-1-oxoisoindolin-4-yl)thio)ethoxy)ethoxy)-N-methylacetamido)ethyl)(methyl)amino)-4-methoxy-5-((4-(1-methyl-1H-indol-3-yl)pyrimidin-2-yl)amino)phenyl)acrylamide], for which the IC50 amounted to 170 nM.
Still for that read-out and setting: the value for `C=CC(=O)Nc1cc(Nc2nccc(-c3cn(C)c4ccccc34)n2)c(OC)cc1N(C)CCN(C)C(=O)CCCCCCCCSc1cccc2c1CN(C1CCC(=O)NC1=O)C2=O` (stereo not shown) [SIAIS337059, N-(2-((2-acrylamido-5-methoxy-4-((4-(1-methyl-1H-indol-3-yl)pyrimidin-2-yl)amino)phenyl)(methyl)amino)ethyl)-9-((2-(2,6-dioxopiperidin-3-yl)-1-oxoisoindolin-4-yl)thio)-N-methylnonanamide] was 46.7 nM.

Values taken from US12564638B2 (SHANGHAITECH UNIVERSITY, priority 2019, dated 2026).
